By IC50 is commonly meant the concentration needed to halve the response being measured.

For this test, the system named is HepG2. As to the kind of experiment: Cytotoxicity in HepG2 cells. The class given is cell-based, human. To be noted: Homo sapiens, HepG2; 48 h, growth suppressed by 50% vs untreated. An outline of the steps:
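Cells seeded at 50,000/well, allowed to adhere overnight in DMEM at 37 °C/5% CO2, then exposed 48 h to compound at a final 0.5% v/v DMSO. Viability read by MTS-type reagent (3 h, absorbance 490 nm), corrected for compound and vehicle blanks, and normalized to untreated cells. IC50 from sigmoidal fit of viability versus log concentration, at least 3 determinations.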

The molecule `CCCCCCCCC(C#N)(CCCN(C)CCc1ccc(OC)c(OC)c1)c1ccc(OC)c(OC)c1` (stereo not shown) [PhA2] yielded an IC50 of 29 µM. In other words, the double-digit micromolar range.

These data come from article PMC12281142, “A potent phenylalkylamine disrupts mycobacterial membrane bioenergetics and augments bactericidal activity of bedaquiline” (iScience, 2025).
